Measurements from ChEMBL document CHEMBL1201862, “PubChem BioAssay data set” (2004).
Activity calls are given as the source filed them.

Legend:
P388/ADR = experiment: cells; assay type: functional; conditions: Mus musculus
SN12K1 = experiment: cells; assay type: functional; conditions: Homo sapiens
P388 = experiment: cells; assay type: functional; conditions: Mus musculus
Caspase-6 = target: T1, Caspase-6 (Homo sapiens, UniProt P55212); experiment: inhibition of CASP6 peptide cleavage – biochemical, VEID-R110 fluorescence, cherry-pick, dose response (AID 720632)
T1 sequence (P55212 whole entry): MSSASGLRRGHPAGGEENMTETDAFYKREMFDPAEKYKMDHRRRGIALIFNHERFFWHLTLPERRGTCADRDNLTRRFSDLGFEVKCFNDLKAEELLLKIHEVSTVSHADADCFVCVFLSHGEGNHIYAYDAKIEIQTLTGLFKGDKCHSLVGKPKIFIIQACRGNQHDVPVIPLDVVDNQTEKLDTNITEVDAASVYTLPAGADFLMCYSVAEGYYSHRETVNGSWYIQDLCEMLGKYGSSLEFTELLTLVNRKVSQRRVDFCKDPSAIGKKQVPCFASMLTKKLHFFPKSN

[1] = target: T2, Polyadenylate-binding protein 1 (Homo sapiens, UniProt P11940); experiment: MLLE domain peptide-binding blockers, IC50 – biochemical, fluorescence polarization, FITC-PAM2 peptide, dose response (AID 602259); assay type: functional; conditions: read-out: IC50_Mean
T2 sequence (P11940 whole entry, the tested form may be a part): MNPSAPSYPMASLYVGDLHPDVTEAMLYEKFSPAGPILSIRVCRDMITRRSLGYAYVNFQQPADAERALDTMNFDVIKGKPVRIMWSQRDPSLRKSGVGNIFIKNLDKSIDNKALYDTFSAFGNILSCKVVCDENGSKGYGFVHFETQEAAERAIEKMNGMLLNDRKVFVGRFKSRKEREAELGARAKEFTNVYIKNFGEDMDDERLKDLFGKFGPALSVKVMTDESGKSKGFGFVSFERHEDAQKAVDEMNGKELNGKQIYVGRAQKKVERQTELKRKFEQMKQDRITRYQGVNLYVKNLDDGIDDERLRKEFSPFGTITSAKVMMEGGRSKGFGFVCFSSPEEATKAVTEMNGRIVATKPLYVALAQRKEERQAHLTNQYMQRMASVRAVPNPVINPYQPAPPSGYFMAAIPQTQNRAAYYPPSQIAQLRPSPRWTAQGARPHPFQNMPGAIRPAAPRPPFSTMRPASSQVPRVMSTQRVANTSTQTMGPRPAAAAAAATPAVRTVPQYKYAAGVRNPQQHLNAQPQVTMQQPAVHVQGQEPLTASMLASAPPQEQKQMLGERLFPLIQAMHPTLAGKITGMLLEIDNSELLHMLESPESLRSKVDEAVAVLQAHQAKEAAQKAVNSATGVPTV

[2] = target: T2, Polyadenylate-binding protein 1; experiment: MLLE binding blockers, Cy5 peptide tracer – biochemical, fluorescence polarization, Cy5-PAM2 peptide, secondary, miRNA deadenylation inhibitor project, dose response (AID 602260); assay type: functional; conditions: read-out: IC50_Mean
Beta-galactosidase = Beta-galactosidase (Escherichia coli, UniProt Q8VNN2); experiment: Dose response counterscreen for EBI2 assay utilizing the enzyme, b-galactosidase.; assay type: functional
Chain of Beta-galactosidase (Q8VNN2 whole entry): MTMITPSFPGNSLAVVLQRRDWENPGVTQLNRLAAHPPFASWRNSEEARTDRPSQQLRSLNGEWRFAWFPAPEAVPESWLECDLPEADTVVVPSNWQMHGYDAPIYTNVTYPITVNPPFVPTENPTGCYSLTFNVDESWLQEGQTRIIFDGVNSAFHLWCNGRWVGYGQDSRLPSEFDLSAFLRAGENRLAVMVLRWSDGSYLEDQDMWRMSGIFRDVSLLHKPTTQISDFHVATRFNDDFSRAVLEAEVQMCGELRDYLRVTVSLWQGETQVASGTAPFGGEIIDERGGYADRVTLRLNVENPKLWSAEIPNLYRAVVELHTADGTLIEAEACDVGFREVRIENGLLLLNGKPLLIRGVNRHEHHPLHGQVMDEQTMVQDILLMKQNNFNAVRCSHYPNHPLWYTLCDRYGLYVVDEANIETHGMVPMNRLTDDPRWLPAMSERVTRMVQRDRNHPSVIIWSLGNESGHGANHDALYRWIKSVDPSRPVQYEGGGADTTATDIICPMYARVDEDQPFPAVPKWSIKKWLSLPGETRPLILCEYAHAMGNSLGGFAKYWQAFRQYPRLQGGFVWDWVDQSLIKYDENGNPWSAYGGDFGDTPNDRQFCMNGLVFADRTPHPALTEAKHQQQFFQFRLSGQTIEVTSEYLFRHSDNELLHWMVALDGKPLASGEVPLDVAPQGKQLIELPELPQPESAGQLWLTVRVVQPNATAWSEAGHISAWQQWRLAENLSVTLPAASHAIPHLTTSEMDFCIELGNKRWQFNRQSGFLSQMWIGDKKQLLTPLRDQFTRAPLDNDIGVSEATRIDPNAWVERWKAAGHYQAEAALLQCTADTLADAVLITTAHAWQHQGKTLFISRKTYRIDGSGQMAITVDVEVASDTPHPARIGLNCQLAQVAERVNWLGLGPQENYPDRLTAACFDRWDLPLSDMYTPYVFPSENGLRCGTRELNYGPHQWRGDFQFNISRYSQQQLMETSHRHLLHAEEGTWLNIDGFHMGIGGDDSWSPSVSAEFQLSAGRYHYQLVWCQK

cells [3] = assay type: functional, cell-based
cells [4] = assay type: functional, cell-based; remark: listed apart in the source
[5] = Luminescence-based cell-based high throughput dose response assay to identify activators of the DAF-12 from the parasite S. stercoralis (ssDAF-12).; assay type: functional
[6] = target: T3, Oxysterols receptor LXR-beta (Homo sapiens, UniProt P55055); experiment: LXR agonists, Gal4 luciferase reporter, dose response, counter-screen for ssDAF-12 agonist project, cell-based, luminescence, HEK293, S. stercoralis campaign (AID 720737); assay type: functional; conditions: read-out: IC50 (the source's name)
T3 sequence (P55055 whole entry): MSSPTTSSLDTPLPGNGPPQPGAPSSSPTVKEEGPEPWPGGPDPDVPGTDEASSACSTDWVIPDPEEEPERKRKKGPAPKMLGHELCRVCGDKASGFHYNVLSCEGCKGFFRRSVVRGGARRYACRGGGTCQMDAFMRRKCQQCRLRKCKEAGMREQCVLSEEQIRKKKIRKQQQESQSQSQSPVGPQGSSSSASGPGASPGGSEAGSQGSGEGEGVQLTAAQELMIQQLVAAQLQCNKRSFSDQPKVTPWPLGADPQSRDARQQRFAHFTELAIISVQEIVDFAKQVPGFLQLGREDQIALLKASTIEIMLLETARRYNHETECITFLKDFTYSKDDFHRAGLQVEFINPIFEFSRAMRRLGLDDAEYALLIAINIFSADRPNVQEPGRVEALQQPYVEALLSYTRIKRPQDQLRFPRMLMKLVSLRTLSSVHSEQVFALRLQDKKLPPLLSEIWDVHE

Protein RecA = target: T4, Protein RecA (Mycobacterium tuberculosis, UniProt P9WHJ3); experiment: Fluorescence Cell-Free Homogeneous Dose Retest to Identify Inhibitors of RecA-Intein Splicing Activity. [Related pubchem assays (depositor defined):AID2097, AID2223, AID489010, AID492950]; assay type: functional
T4 sequence (P9WHJ3 whole entry): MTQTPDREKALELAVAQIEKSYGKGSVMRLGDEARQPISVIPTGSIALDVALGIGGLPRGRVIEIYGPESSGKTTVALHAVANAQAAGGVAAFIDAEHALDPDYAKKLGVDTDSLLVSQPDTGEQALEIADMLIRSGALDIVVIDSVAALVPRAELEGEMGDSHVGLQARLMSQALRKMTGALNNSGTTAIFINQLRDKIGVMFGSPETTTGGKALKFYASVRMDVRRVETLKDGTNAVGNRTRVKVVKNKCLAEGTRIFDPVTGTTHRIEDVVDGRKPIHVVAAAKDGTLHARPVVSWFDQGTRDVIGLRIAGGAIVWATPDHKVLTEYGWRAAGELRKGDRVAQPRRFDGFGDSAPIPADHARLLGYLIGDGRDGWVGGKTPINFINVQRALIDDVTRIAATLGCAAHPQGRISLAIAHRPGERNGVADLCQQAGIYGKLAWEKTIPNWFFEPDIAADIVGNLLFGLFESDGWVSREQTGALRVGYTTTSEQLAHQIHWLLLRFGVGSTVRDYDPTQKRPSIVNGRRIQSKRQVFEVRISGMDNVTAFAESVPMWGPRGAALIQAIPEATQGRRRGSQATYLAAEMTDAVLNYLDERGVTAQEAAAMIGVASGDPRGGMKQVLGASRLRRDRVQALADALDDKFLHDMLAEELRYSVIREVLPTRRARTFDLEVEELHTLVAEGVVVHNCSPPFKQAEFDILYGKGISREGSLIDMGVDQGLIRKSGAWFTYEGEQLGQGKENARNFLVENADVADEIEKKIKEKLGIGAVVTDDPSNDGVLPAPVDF

HT-1080 = experiment: HT1080 cell viability loss – fluorescence readout (AID 620); assay type: functional, cell-based; conditions: Homo sapiens
[7] = Luminescence Cell-Based Dose Confirmation HTS to Identify Inhibitors of Platelet Dense Granule Release. [Related pubchem assays: 1663 (Primary HTS), 1678 (Summary of Project)]; assay type: functional
[8] = Luminescence Cell-Based Dose Response HTS to Identify Inhibitors of 5'UTR Stem-Loop Driven Prion Protein mRNA Translation in H4 Neuroglioblastoma Cells. [Related pubchem assays: 1827 (Project Summary), 1813 (Primary HTS)]; assay type: functional
[9] = microbe, parasite or virus in culture; assay type: functional; conditions: Mycobacterium tuberculosis
[10] = target: T5, Mannose-6-phosphate isomerase (Homo sapiens, UniProt P34949); experiment: MPI inhibition at elevated mannose 6-phosphate – biochemical, fluorescence intensity, high mannose 6-phosphate, primary screen (AID 1220)
T5 sequence (P34949 whole entry): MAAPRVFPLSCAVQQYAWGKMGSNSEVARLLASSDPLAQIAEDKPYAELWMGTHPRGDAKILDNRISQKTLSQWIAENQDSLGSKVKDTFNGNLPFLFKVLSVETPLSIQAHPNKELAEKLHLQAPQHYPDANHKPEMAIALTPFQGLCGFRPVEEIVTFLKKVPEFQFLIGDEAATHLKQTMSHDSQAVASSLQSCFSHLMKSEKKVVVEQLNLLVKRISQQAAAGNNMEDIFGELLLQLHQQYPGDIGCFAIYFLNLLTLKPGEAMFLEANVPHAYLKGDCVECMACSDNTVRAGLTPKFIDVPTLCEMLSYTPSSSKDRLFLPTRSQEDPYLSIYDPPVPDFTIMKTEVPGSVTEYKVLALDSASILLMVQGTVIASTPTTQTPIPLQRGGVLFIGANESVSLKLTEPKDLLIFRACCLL

[11] = target: T6, Luciferin 4-monooxygenase (Photinus pyralis, UniProt P08659); experiment: inhibition of purified Photinus pyralis luciferase – biochemical, luminescence, dose response (AID 1891)
T6 sequence (P08659 whole entry): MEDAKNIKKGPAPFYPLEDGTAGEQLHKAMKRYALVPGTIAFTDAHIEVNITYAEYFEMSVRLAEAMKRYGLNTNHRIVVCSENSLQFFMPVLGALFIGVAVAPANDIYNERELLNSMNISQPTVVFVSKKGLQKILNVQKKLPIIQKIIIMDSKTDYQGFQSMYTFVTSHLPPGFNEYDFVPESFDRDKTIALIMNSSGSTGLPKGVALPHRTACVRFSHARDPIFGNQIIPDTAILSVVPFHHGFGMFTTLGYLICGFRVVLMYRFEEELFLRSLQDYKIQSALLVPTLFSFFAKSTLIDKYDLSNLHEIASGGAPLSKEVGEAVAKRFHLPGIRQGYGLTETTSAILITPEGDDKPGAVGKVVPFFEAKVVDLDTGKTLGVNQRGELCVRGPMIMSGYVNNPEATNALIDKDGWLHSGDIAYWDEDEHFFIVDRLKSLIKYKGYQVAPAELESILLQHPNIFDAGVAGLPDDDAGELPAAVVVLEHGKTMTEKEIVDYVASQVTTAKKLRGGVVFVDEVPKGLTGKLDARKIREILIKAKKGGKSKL

[12] = target: T6, Luciferin 4-monooxygenase; experiment: Counter Screen for Luciferase-based Assay Positives. [Related pubchem assays: 620, 618, 411 ]
[13] = target: T7, Replicative DNA helicase DnaB (Mycobacterium tuberculosis, UniProt P9WMR3); experiment: DnaB intein splicing inhibitors, dose response, biochemical, cell-free fluorescence (AID 449749); assay type: functional
T7 sequence (P9WMR3 whole entry): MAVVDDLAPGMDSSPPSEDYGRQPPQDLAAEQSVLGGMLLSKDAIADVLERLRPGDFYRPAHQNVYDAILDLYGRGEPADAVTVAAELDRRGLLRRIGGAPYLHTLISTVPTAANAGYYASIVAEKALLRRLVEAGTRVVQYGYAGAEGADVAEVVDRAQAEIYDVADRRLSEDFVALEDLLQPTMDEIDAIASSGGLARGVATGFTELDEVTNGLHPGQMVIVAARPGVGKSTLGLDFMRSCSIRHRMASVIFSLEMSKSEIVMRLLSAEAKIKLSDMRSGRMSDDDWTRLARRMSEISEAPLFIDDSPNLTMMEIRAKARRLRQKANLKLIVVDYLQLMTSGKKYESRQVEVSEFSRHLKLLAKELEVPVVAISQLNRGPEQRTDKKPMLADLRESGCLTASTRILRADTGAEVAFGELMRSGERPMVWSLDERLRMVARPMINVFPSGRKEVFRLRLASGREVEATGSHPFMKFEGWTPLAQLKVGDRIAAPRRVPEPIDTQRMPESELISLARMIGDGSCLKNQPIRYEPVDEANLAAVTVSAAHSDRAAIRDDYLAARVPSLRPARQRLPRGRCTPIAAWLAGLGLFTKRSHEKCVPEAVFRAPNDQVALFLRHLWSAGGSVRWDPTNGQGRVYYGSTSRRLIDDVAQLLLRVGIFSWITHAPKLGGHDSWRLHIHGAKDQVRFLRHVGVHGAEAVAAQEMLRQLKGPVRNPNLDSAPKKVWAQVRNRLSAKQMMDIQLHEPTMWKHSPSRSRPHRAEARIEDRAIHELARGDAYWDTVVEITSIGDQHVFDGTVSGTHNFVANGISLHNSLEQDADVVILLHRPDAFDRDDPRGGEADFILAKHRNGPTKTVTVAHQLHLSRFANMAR

[14] = Trypanosoma cruzi growth suppression in host cells – NIH3T3 host cells, beta-gal luminescence, confirmation (AID 2044); assay type: functional, cell-based;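 note: intracellular parasites grown in NIH/3T3 mouse fibroblasts as host cells; luminescent beta-galactosidase reporter signal from transgenic T. cruzi replicating inside host cells; inhibitors lower the luminescence signal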
[15] = NIH3T3 cell viability loss – ATP luminescence, mouse fibroblasts, counter-screen, dose response (AID 2010); assay type: functional, cell-based;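 note: cells exposed to compound for about 90 hours before reading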
[16] = target: T3, Oxysterols receptor LXR-beta; assay type: functional, cell-based

Q: With `CN1N=C(N)c2cn(C3OC(COP(=O)(O)O)C(O)C3O)c3ncnc1c23` (stereo unspecified) as the molecule, how does the GI50 (P388/ADR) read?
A: Its GI50 is 0.5 µM (active).

Q: What about the GI50 (SN12K1) of the same molecule?
A: Its GI50 is 32.8 µM (inactive).

Q: And the GI50 (P388)?
A: Its GI50 is 0.5 µM (active).

Q: What about the AC50 (Caspase-6) of the same molecule?
A: The AC50 was 29.6 µM (active).

Q: And the IC50 [1]?
A: Its IC50 is > 66 µM (inactive).

Q: And the IC50 [2]?
A: The IC50 was > 66 µM (inactive).

Q: For `CN(Cc1ccc(F)cc1)C(=O)COc1ccc2ccccc2c1`, which IC50 (Beta-galactosidase) is on record?
A: Its IC50 is > 80 µM (inactive).

Q: With `Oc1cc(C=NNc2ccccc2)nc(O)n1` as the molecule, how does the IC50 (cells [3]) read?
A: The IC50 was > 29.9 µM (inactive).

Q: And the EC50 (cells [4])?
A: Its EC50 is > 29.9 µM (inactive).

Q: For `Cc1ccc(C(=O)C2CC2)c(C)c1`, which IC50 [5] is on record?
A: The IC50 was > 67.4 µM (inactive).

Q: And the EC50 [6]?
A: Its EC50 is > 67.4 µM (inactive).

Q: Which results are given for `OC1=C(/C=N/c2ccc3c(c2)OCO3)CCc2ccccc21`?
A: EC50 (Protein RecA): 0.43 µM (active); EC50 (HT-1080): > 50 µM (not active); EC50 [7]: 7.07 µM (active); EC50 [8]: 7.7 µM (active); CC50 [9]: > 40 µM (active); IC50 [10]: 0.829 µM (active); EC50 [11]: 0.871 µM (active); EC50 [12]: 2.31 µM (active); AC50 [13]: > 380 µM (inactive)

Q: With `Cc1cc(C)c2c(=O)n3c(nc2c1)C(CC(C)C)NC(=O)c1cc2ccccc2cc1-3` (stereo unspecified) as the molecule, how does the IC50 (Beta-galactosidase) read?
A: The IC50 was > 80 µM (inactive).

Q: Which results are given for `CN1CCN(/C=N/c2sc3c(c2C#N)CCCCC3)CC1`?
A: EC50 [14]: 1.01 µM (active); EC50 [7]: > 112 µM (not active); EC50 [15]: > 60 µM (not active); EC50 [16]: > 67.5 µM (inactive); EC50 [11]: > 112 µM (not active)
